The assay has as its target T1, C. elegans Daf12 (Caenorhabditis elegans, UniProt G5EFF5).
T1 construct: C. elegans Daf12 (amino acids 184 to end); expressed in transfected cells; host or cells: Drosophila S2 cells
The assay can be described thus: S2 cell Daf12 reporter. The format is cell-based. The source says:
The Drosophila S2 cell line was originally purchased from Invitrogen and was maintained in Schneider's Drosophila medium supplemented with 10% heat-inactivated bovine fetal calf serum and 1× antibiotic-antimycotic solution (Invitrogen). The Gal4 DNA binding domain (G4 DBD), corresponding to amino acids 1 through 147 of the Gal4 protein, was PCR amplified to make the fusion construct with murine RORγ (amino acids 79 to the carboxyl terminal end) lacking its DNA binding domain. The resulting chimeric gene was subcloned into the copper inducible pMT/V5-His A vector (Invitrogen) and into the constitutive pAc vector. Similar methods yielded fusion constructs between G4 DBD and murine RORα (amino acids 142 to end), Drosophila DHR3 (amino acids 120 to end), C. elegans Daf12 (amino acids 184 to end), and herpes simplex virus VP16 (amino acids 413 to end). Coding sequences for firefly luciferase (Promega) were PCR amplified and subcloned into the pUAST vector containing five Gal4 binding enhancer sequences. The Renilla luciferase construct under a pol III promoter and the pAc vector were obtained from R. Dasgupta (NYU School of Medicine). […]

T1 sequence (G5EFF5 184-753 limits assumed): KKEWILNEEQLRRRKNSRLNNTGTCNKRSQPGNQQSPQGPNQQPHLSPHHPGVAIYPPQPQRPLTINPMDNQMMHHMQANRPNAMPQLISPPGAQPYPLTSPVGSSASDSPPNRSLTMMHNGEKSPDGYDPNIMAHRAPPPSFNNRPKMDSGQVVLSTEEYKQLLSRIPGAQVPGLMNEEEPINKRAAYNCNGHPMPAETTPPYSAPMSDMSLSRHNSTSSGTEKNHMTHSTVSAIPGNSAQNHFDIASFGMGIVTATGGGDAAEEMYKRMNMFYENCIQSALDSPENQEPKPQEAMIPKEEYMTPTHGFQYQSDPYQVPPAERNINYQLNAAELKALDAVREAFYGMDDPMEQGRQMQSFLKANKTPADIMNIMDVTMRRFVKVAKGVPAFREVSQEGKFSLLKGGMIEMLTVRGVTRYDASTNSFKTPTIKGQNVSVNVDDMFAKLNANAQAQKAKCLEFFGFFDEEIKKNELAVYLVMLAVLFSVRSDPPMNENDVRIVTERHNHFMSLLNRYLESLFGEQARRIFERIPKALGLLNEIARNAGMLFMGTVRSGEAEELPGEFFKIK

As for `C[C@H]1O[C@@H](O[C@H]2[C@@H](O)C[C@H](O[C@H]3[C@@H](O)C[C@H](O[C@H]4CC[C@@]5(C)[C@H](CC[C@@H]6[C@@H]5C[C@@H](O)[C@]5(C)[C@@H](C7=CC(=O)OC7)CC[C@]65O)C4)O[C@@H]3C)O[C@@H]2C)C[C@H](O)[C@@H]1O` [Digoxin], the “inhibition of C. elegans Daf12 activity” value is “did not inhibit”.

These data come from patent US9505798B2, “Steroid compounds as RORyt modulators and uses thereof” (New York University, priority 2010, dated 2016).
